Assay results from BigSolDB 2.1.

O=C(Nc1ccccc1)c1ccccc1O
solubility (mole fraction)
Settings | 283.15 K | 288.15 K | 293.15 K | 298.15 K | 303.15 K | 308.15 K | 313.15 K | 318.15 K | 323.15 K
in acetonitrile | 0.0129 | 0.0153 | 0.0181 | 0.0217 | 0.0258 | 0.0307 | 0.0359 | 0.0423 | 0.0485
in ethanol | 0.0185 | 0.0207 | 0.0235 | 0.0273 | 0.0322 | 0.0366 | 0.0425 | 0.0487 | 0.0572
in ethyl acetate | 0.0344 | 0.039 | 0.0432 | 0.0486 | 0.0554 | 0.0635 | 0.0709 | 0.0808 | 0.0892
in ethyl formate | 0.0195 | 0.0219 | 0.0248 | 0.0293 | 0.0334 | 0.041 | 0.0488 | 0.0585 | 0.0681
in isopropanol | 0.0169 | 0.0199 | 0.0225 | 0.0265 | 0.0315 | 0.036 | 0.041 | 0.0473 | 0.053
in isopropyl acetate | 0.0281 | 0.031 | 0.0352 | 0.0389 | 0.0439 | 0.0502 | 0.0567 | 0.0638 | 0.0709
in methyl acetate | 0.0366 | 0.0408 | 0.0443 | 0.05 | 0.0568 | 0.0658 | 0.0766 | 0.0879 | 0.101
in n-butanol | 0.013 | 0.0155 | 0.0178 | 0.021 | 0.0247 | 0.0292 | 0.0346 | 0.0403 | 0.0467
in n-butyl acetate | 0.028 | 0.0311 | 0.0349 | 0.0388 | 0.0435 | 0.049 | 0.0545 | 0.061 | 0.0686
in n-pentanol | 0.014 | 0.0157 | 0.0181 | 0.0206 | 0.0238 | 0.0281 | 0.0338 | 0.0396 | 0.0459
in n-propanol | 0.0134 | 0.0168 | 0.0199 | 0.0229 | 0.0266 | 0.0314 | 0.0363 | 0.0418 | 0.0479
in n-propyl acetate | 0.0303 | 0.0347 | 0.0378 | 0.0435 | 0.0483 | 0.0542 | 0.0616 | 0.0703 | 0.0796
